MIC data for 6 compounds are collected here from DBAASP.

≈ marks a conversion by molar mass, not a printed value. Bounds are passed on as bounds.

Holding throughout (assay): ≥ marks a high value that may be exact or a test limit, other limits are often not marked, values filed in µg/mL are converted to µM
Test [1] concerns Streptococcus mutans.
Test [2] concerns Veillonella atypica PK1910.
For test [3], the system named is Streptococcus mitis ATCC 903.
Test [4] concerns Streptococcus sanguinis NY101.
Test [5] concerns Streptococcus gordonii Challis DL1.
Test [6] concerns Lacticaseibacillus casei ATCC 4646.
Test [7] relates to Acinetobacter baumannii Ab5755.
The subject of test [8] is Acinetobacter baumannii NM35.
The subject of test [9] is Klebsiella pneumoniae ATCC 700603.
The subject of test [10] is Acinetobacter baumannii Ab1408.
Test [11] relates to Staphylococcus aureus Sa1390.
The test system of test [12] is Acinetobacter baumannii NM124.
Test [13] deals with Acinetobacter baumannii Ab5753.
The subject of test [14] is Acinetobacter baumannii NM8.
Test [15] concerns Pseudomonas aeruginosa Pa4216.
For test [16], the system named is Pseudomonas aeruginosa ATCC 27853.
Test [17] has as its system Candida albicans ATCC 90028.
Test [18] relates to Escherichia coli Ec513.
The test system of test [19] is Staphylococcus aureus ATCC 25923.
Test [20] has as its system Escherichia coli ATCC 25726.
In test [21] the test system is Pseudomonas aeruginosa Pa1409.
The test system of test [22] is Enterobacter cloacae ATCC 11775.
Test [23] has as its system Salmonella enterica subsp. enterica serovar Enteritidis.
Test [24] deals with Saccharomyces cerevisiae.
Test [25] relates to Staphylococcus haemolyticus.
Test [26] has as its system Vibrio cholerae.
Test [27] concerns Candida albicans.
In test [28] the test system is Salmonella typhimurium CIP 6062.
Test [29] relates to Pseudomonas aeruginosa.
Test [30] concerns Neisseria meningitidis.
For test [31], the system named is Bacillus megaterium ATCC 9885.
Test [32] concerns Klebsiella pneumoniae.
Test [33] deals with Listeria monocytogenes.
Test [34] concerns Clostridium perfringens.
The test system of test [35] is Escherichia coli 363 ATCC 11775.
Test [36] concerns Streptococcus pneumoniae.
Test [37] deals with Escherichia coli B.
Test [38] deals with Salmonella typhimurium.
Test [39] deals with Escherichia coli O111.

The MIC is the smallest concentration in the dilution series that meets the test's criterion for growth inhibition. Lower therefore signals inhibition by little substance.

Turning to `NCCCC[C@H](NC(=O)[C@H](Cc1c[nH]c2ccccc12)NC(=O)[C@H](Cc1ccccc1)NC(=O)[C@H](CCCCN)NC(=O)[C@H](CCCCN)NC(=O)[C@@H](N)Cc1ccccc1)C(=O)N[C@@H](Cc1c[nH]c2ccccc12)C(=O)N[C@@H](Cc1ccccc1)C(=O)N[C@@H](CCCN=C(N)N)C(=O)N[C@@H](CCCN=C(N)N)C(=O)N[C@@H](Cc1ccccc1)C(=O)NCC(=O)NCC(=O)NCC(=O)N[C@@H](CCCN=C(N)N)C(=O)N[C@@H](Cc1c[nH]c2ccccc12)C(=O)N[C@@H](CCCN=C(N)N)C(=O)N[C@@H](Cc1c[nH]c2ccccc12)C(=O)N[C@@H](CCCN=C(N)N)C(=O)N[C@@H](Cc1c[nH]c2ccccc12)C(=O)N[C@@H](Cc1ccccc1)C(N)=O` [FKKFWKWFRRFGGGRWRWRWF], the minimum inhibitory concentration (MIC) in test [1] is 2.65 µM (≈ 8 µg/mL); in test [2] it was 2.65 µM (≈ 8 µg/mL); in test [3], 21.2 µM (≈ 64 µg/mL); in test [4], 5.3 µM (≈ 16 µg/mL); in [5], 10.6 µM (≈ 32 µg/mL); in [6] it was 2.65 µM (≈ 8 µg/mL).

For the compound `CC[C@H](C)[C@H](NC(=O)CNC(=O)[C@H](CCCCN)NC(=O)[C@@H](NC(=O)[C@H](CC(C)C)NC(=O)[C@H](CO)NC(=O)CNC(=O)[C@H](CC(C)C)NC(=O)CNC(=O)[C@H](C)NC(=O)[C@H](CCCCN)NC(=O)[C@H](Cc1ccccc1)NC(=O)[C@@H](NC(=O)[C@H](CCCCN)NC(=O)[C@H](CCCCN)NC(=O)[C@H](CC(C)C)NC(=O)CN)[C@@H](C)CC)C(C)C)C(=O)N[C@@H](C)C(=O)N[C@@H](C)C(=O)N[C@@H](Cc1cnc[nH]1)C(=O)N[C@H](C(=O)N[C@@H](C)C(=O)N[C@@H](CO)C(N)=O)C(C)C` [GLKKIFKAGLGSLVKGIAAHVAS], the MIC in test [7] was 3.53 µM (≈ 8 µg/mL); in test [8] it was 5 µM (≈ 11.3 µg/mL); in test [9], 12.5 µM (≈ 28.3 µg/mL); in test [10] it was 28.2 µM (≈ 64 µg/mL); in test [11] it was not below 56.5 µM; in test [12], 1.25 µM (≈ 2.83 µg/mL). Besides, the MIC in test [13] amounted to 28.2 µM (≈ 64 µg/mL); in test [14], 2.5 µM (≈ 5.66 µg/mL); in test [15] it was 28.2 µM (≈ 64 µg/mL); in test [16], 6 µM (≈ 13.6 µg/mL); in test [17] it was 20 µM (≈ 45.3 µg/mL); in test [18] it was 14.1 µM (≈ 32 µg/mL). Also, the MIC in [19] was 250 µM (≈ 566 µg/mL); in test [20] it was 5 µM (≈ 11.3 µg/mL); in test [21] it was not below 56.5 µM.

Consider `CC[C@H](C)[C@H](NC(=O)[C@H](CC(C)C)NC(=O)[C@H](CO)NC(=O)[C@@H](NC(=O)[C@@H](NC(=O)[C@H](CC(C)C)NC(=O)CN)C(C)C)[C@@H](C)O)C(=O)N[C@@H](CCCCN)C(=O)NCC(=O)N[C@@H](C)C(=O)NCC(=O)N[C@@H](CCCCN)C(=O)N[C@@H](CC(C)C)C(=O)N[C@@H](CC(C)C)C(=O)NCC(=O)NCC(=O)N[C@@H](CC(C)C)C(=O)N[C@@H](Cc1ccccc1)C(=O)NCC(=O)N[C@@H](CO)C(=O)N[C@H](C(=O)N[C@H](C(=O)NCC(N)=O)[C@@H](C)O)C(C)C` [GLVTSLIKGAGKLLGGLFGSVTG], for which the MIC in test [22] stood at 12.6 µM (≈ 26.9 µg/mL); in test [23], 1.5 µM (≈ 3.22 µg/mL); in test [24], 12.5 µM (≈ 26.8 µg/mL); in test [25], 6.25 µM (≈ 13.4 µg/mL); in test [26], 6.25 µM (≈ 13.4 µg/mL); in test [27], 12.5 µM (≈ 26.8 µg/mL). In addition, the MIC in test [28] is 12.6 µM (≈ 26.9 µg/mL); in test [29], 1.5 µM (≈ 3.22 µg/mL); in [30], 25 µM (≈ 53.6 µg/mL); in test [31], 3.15 µM (≈ 6.76 µg/mL); in test [32] it was 3.1 µM (≈ 6.65 µg/mL); in test [19], 6.25 µM (≈ 13.4 µg/mL). The MIC came to 12.5 µM (≈ 26.8 µg/mL) in [33], 25 µM (≈ 53.6 µg/mL) in test [34], 6.25 µM (≈ 13.4 µg/mL) in test [35] and 3.1 µM (≈ 6.65 µg/mL) in [36].

Consider `CC(C)C[C@H](NC(=O)[C@H](CC(C)C)NC(=O)[C@H](CCCCN)NC(=O)CNC(=O)[C@H](C)NC(=O)[C@@H](NC(=O)[C@H](CCCCN)NC(=O)[C@H](CC(C)C)NC(=O)[C@H](CC(C)C)NC(=O)[C@H](CC(=O)O)NC(=O)[C@@H](NC(=O)[C@@H](NC(=O)[C@@H](NC(=O)CN)C(C)C)C(C)C)[C@@H](C)O)[C@@H](C)O)C(=O)NCC(=O)N[C@@H](CC(N)=O)C(=O)N[C@@H](CC(C)C)C(=O)N[C@@H](Cc1ccccc1)C(=O)NCC(=O)N[C@@H](CO)C(=O)N[C@@H](CC(C)C)C(=O)N[C@@H](CO)C(=O)NCC(N)=O` [GVVTDLLKTAGKLLGNLFGSLSG], for which the MIC in test [22] is 12.5 µM (≈ 28.2 µg/mL); in test [37], 12.5 µM (≈ 28.2 µg/mL); in [23] it was 3.1 µM (≈ 7.01 µg/mL); in test [24], not below 100 µM; in test [25] it was not below 50 µM; in [26], 25 µM (≈ 56.5 µg/mL). Further, the minimum inhibitory concentration (MIC) in test [38] is 6.25 µM (≈ 14.1 µg/mL); in test [27], 50 µM (≈ 113 µg/mL); in test [28], 25.2 µM (≈ 57.1 µg/mL); in test [29] it was 3.1 µM (≈ 7.01 µg/mL); in test [30] it was not below 50 µM; in [31], not below 50.2 µM. For the same compound, the MIC in test [32] was 6.25 µM (≈ 14.1 µg/mL); in [19] it was 6.25 µM (≈ 14.1 µg/mL); in [33], not below 50 µM; in [34] it was not below 100 µM; in test [35], 6.25 µM (≈ 14.1 µg/mL); in test [36], 12.5 µM (≈ 28.2 µg/mL).

Consider `CC(C)C[C@H](NC(=O)[C@H](Cc1ccccc1)NC(=O)[C@H](CCCN=C(N)N)NC(=O)[C@H](CCCCN)NC(=O)[C@@H](N)CC(C)C)C(=O)N[C@@H](CCCCN)C(=O)N[C@@H](Cc1c[nH]c2ccccc12)C(=O)N[C@@H](Cc1ccccc1)C(=O)N[C@@H](CCCCN)C(=O)N[C@@H](CCCN=C(N)N)C(=O)N[C@@H](Cc1ccccc1)C(=O)NCC(=O)NCC(=O)NCC(=O)N[C@@H](CCCN=C(N)N)C(=O)N[C@@H](Cc1c[nH]c2ccccc12)C(=O)N[C@@H](CCCN=C(N)N)C(=O)N[C@@H](Cc1c[nH]c2ccccc12)C(=O)N[C@@H](CCCN=C(N)N)C(=O)N[C@@H](Cc1c[nH]c2ccccc12)C(=O)N[C@@H](Cc1ccccc1)C(N)=O` [LKRFLKWFKRFGGGRWRWRWF], for which the MIC in test [1] was determined as 2.74 µM (≈ 8 µg/mL); in test [2], 2.74 µM (≈ 8 µg/mL); in test [3], 22 µM (≈ 64 µg/mL); in test [4], 5.49 µM (≈ 16 µg/mL); in test [5], 22 µM (≈ 64 µg/mL); in [6], 5.49 µM (≈ 16 µg/mL).

On to `CC[C@H](C)[C@H](NC(=O)[C@H](CO)NC(=O)[C@@H]1CCCN1C(=O)[C@H](C)NC(=O)CNC(=O)[C@H](CC(C)C)NC(=O)[C@H](CCCCN)NC(=O)[C@H](CCCN=C(N)N)NC(=O)[C@H](CCSC)NC(=O)[C@H](CCCN=C(N)N)NC(=O)[C@H](CCCN=C(N)N)NC(=O)[C@H](CCC(N)=O)NC(=O)[C@H](Cc1c[nH]c2ccccc12)NC(=O)[C@H](CCC(N)=O)NC(=O)[C@@H](N)Cc1ccc(O)cc1)C(=O)N[C@H](C(=O)O)[C@@H](C)O` [YQWQRRMRKLGAPSIT], for which the MIC in test [39] was not below 100 µM.
